Measured values as given in PubChem BioAssay (NCI).
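Briefly, cells in 96-well plates were exposed to five compound concentrations for 48 h, and endpoints were estimated by linear interpolation. GI50 is the concentration that inhibits growth by half. TGI marks complete inhibition of growth.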 *1 amine or outer side, *2 acyl side, *3 side chain or, on linkers, in order; H or OH if unused. Where a SMILES comes first, the peptide text is derived from it. [ ]: non-standard residue; d: D form. The star is where a group is joined. X12 = NCCCCC(N[*:1])C(=O)CN1CCCC1C(=O)[*:2]; Pentadecanoyl = CCCCCCCCCCCCCCC(=O)*

How the values were obtained:
Test in all cases: inhibition of tumour cell growth, NCI panel, 48 h
[1] = system: HCT-116 colon
[2] = system: SN12C renal
[3] = system: SF-268 CNS
[4] = system: UACC-257 melanoma
[5] = system: K-562 leukemia
[6] = system: SF-295 CNS
[7] = system: NCI-H460 lung
[8] = system: SF-539 CNS

SMILES: N#Cc1nc(C(=O)c2ccccc2)oc1N
- TGI [1]: > 100 µM
- TGI [2]: > 100 µM
- TGI [3]: > 100 µM
- TGI [4]: > 100 µM
- TGI [5]: > 100 µM

SMILES: C/C(=N/NC(=O)c1ccccc1Nc1ccccc1C(=O)N/N=C(\C)c1ccc(C)cc1)c1ccc(C)cc1
- TGI [6]: > 100 µM
- TGI [7]: > 100 µM
- TGI [1]: > 100 µM
- TGI [2]: > 100 µM
- TGI [3]: > 100 µM
- TGI [4]: > 100 µM
- TGI [5]: > 100 µM

SMILES: CCCCCCCCCCCCCCC(=O)NC(CCCCN)C(=O)CN1CCCC1C(=O)NCC(=O)NC(Cc1ccccc1)C(=O)N1CCCC1C(=O)NC(CO)C(=O)NC(Cc1ccc(O)cc1)C(=O)NC(CCCCN)C(=O)NC(CC(C)C)C(=O)NC(CCCN=C(N)N)C(=O)N1CCCC1C(=O)NCC(N)=O (stereo not given) (Pentadecanoyl-[X12]GFPSYKLRPG-NH2; configuration not given here)
- GI50 [6]: 26.2 µM
- TGI [6]: 57.3 µM
- GI50 [7]: 28.3 µM
- TGI [7]: 83.7 µM
- GI50 [1]: 14.2 µM
- TGI [1]: 29.6 µM
- GI50 [8]: 27.2 µM
- TGI [8]: 59.9 µM
- GI50 [3]: 22.4 µM
- TGI [3]: 52.9 µM
- GI50 [4]: 29.5 µM
- TGI [4]: 52.1 µM
- GI50 [5]: 19.5 µM
- TGI [5]: 40 µM

SMILES: CC1CC2OC(=N)C1(C#N)C2(C#N)C#N (stereo not given)
- TGI [6]: > 100 µM
- TGI [1]: 43.3 µM
- TGI [8]: 56.7 µM
- TGI [2]: 33.6 µM
- TGI [3]: 66.3 µM
- TGI [4]: 41 µM
- TGI [5]: 56.2 µM

SMILES: O=C(N(C1=CCCC1)N(c1ccccc1)c1ccccc1)C(F)(F)F
- TGI [6]: 77 µM
- TGI [7]: 35.7 µM
- TGI [1]: 63.5 µM
- TGI [8]: 45.9 µM
- TGI [2]: 78.7 µM
- TGI [3]: 48.7 µM
- TGI [4]: 58.9 µM
- TGI [5]: 68.7 µM

SMILES: Fc1sc2c(c1F)C1CCC2C1 (stereo not given)
- TGI [6]: > 100 µM
- TGI [7]: > 100 µM
- TGI [1]: > 100 µM
- TGI [8]: > 100 µM
- TGI [2]: > 100 µM
- TGI [3]: > 100 µM
- TGI [4]: > 100 µM

SMILES: Oc1cccc(-c2cn3cc(Cl)ccc3n2)c1
- TGI [6]: > 100 µM
- TGI [7]: > 100 µM
- TGI [1]: > 100 µM
- TGI [2]: > 100 µM
- TGI [3]: > 100 µM
- TGI [4]: 77.5 µM
- TGI [5]: > 100 µM

SMILES: O=C(CSCC(=O)N/N=C\c1cccc(Br)c1)N/N=C\c1cccc(Br)c1
- TGI [6]: 29.9 µM
- TGI [7]: 84.3 µM
- TGI [1]: 27.9 µM
- TGI [8]: 50.8 µM
- TGI [2]: 35.2 µM
- TGI [3]: 37.9 µM
- TGI [4]: 33.2 µM
- TGI [5]: 68.4 µM

SMILES: Cc1nc(C)c(C(=O)NNC(=O)c2ccccc2)cc1C(=O)NNC(=O)c1ccccc1
- TGI [6]: > 100 µM
- TGI [7]: > 100 µM
- TGI [1]: > 100 µM
- TGI [8]: > 100 µM
- TGI [2]: > 100 µM
- TGI [3]: > 100 µM
- TGI [4]: > 100 µM
- TGI [5]: > 100 µM

SMILES: COc1ccc(Cn2nc(OCc3ccccc3)c3cc([N+](=O)[O-])ccc32)cc1
- TGI [6]: > 100 µM
- TGI [7]: > 100 µM
- TGI [8]: > 100 µM
- TGI [2]: > 100 µM
- TGI [3]: > 100 µM
- TGI [4]: > 100 µM
- TGI [5]: > 100 µM

SMILES: [O-][n+]1cc(SCc2ccccc2)ncc1SCc1ccccc1
- TGI [6]: > 10 µM
- TGI [7]: > 10 µM
- TGI [1]: > 10 µM
- TGI [8]: > 10 µM
- TGI [2]: > 10 µM
- TGI [3]: > 10 µM
- TGI [4]: > 10 µM
- TGI [5]: > 10 µM

SMILES: CCOC(=O)CCC1(C(=O)O[C@@H]2C[C@H](C)CC[C@H]2C(C)C)CCCCC1=O (stereo not given in full)
- TGI [6]: > 100 µM
- TGI [7]: > 100 µM
- TGI [1]: > 100 µM
- TGI [8]: > 100 µM
- TGI [2]: > 100 µM
- TGI [3]: > 100 µM
- TGI [4]: 60 µM
- TGI [5]: > 100 µM

SMILES: O=C(OCC(OC(=O)c1ccccc1)C1CC(C(O)C2CCCCC2)C(=O)O1)c1ccccc1 (stereo not given)
- TGI [6]: > 100 µM
- TGI [7]: > 100 µM
- TGI [1]: > 100 µM
- TGI [8]: 66.1 µM
- TGI [2]: > 100 µM
- TGI [3]: > 100 µM
- TGI [4]: > 100 µM
- TGI [5]: 50.5 µM

SMILES: CCOC(=O)N1c2c(c3ccccc3n2C(=O)OCC)C(=O)C(OC)N1C(=O)OCC (stereo not given)
- TGI [6]: 59.4 µM
- TGI [7]: > 100 µM
- TGI [1]: 86.9 µM
- TGI [8]: 74.7 µM
- TGI [2]: > 100 µM
- TGI [4]: > 100 µM
- TGI [5]: > 100 µM

SMILES: C=C1CC2C[C@H](OS(=O)(=O)c3ccc(C)cc3)C(C1)N2C (stereo not given in full)
- TGI [6]: > 100 µM
- TGI [7]: > 100 µM
- TGI [1]: > 100 µM
- TGI [8]: > 100 µM
- TGI [2]: > 100 µM
- TGI [3]: > 100 µM
- TGI [4]: > 100 µM
- TGI [5]: > 100 µM

SMILES: CCCCCC(=O)OCC1(CO)C/C(=C/CC(C(C)C)C(C)C)C(=O)O1 (stereo not given)
- TGI [6]: > 75 µM
- TGI [7]: > 75 µM
- TGI [1]: > 75 µM
- TGI [2]: > 75 µM
- TGI [3]: > 75 µM
- TGI [4]: > 75 µM

SMILES: N#Cc1nc(-c2ccccn2)c(-c2ccccn2)nc1C#N
- TGI [6]: 7.92 µM
- TGI [7]: > 35.1 µM
- TGI [1]: 3.27 µM
- TGI [8]: 21.5 µM
- TGI [2]: > 100 µM
- TGI [3]: 7.12 µM
- TGI [4]: 14.7 µM
- TGI [5]: 19.4 µM

SMILES: O=S1(=O)OCCOS(=O)(=O)C1S(=O)(=O)c1cccc2ccccc12
- TGI [6]: > 100 µM
- TGI [7]: > 100 µM
- TGI [1]: 57.1 µM
- TGI [2]: > 100 µM
- TGI [4]: > 100 µM
- TGI [5]: > 100 µM

SMILES: COc1ccc(C2=C(N)c3cc(OC)ccc3C2=O)cc1
- TGI [6]: > 100 µM
- TGI [7]: > 100 µM
- TGI [1]: > 100 µM
- TGI [8]: > 100 µM
- TGI [2]: > 100 µM
- TGI [3]: > 100 µM
- TGI [4]: > 100 µM

SMILES: CCOC(=O)/C=C/C(Br)=C(Br)/C=C/C(=O)OCC
- TGI [6]: 28.8 µM
- TGI [7]: > 100 µM
- TGI [1]: 17 µM
- TGI [2]: 25.9 µM
- TGI [3]: 40.4 µM
- TGI [4]: 43.5 µM
- TGI [5]: 10.9 µM

SMILES: NS(=O)(=O)c1ccc(NS(=O)(=O)c2ccc(NC(=O)N(c3ccccc3)c3ccccc3)cc2)cc1
- TGI [6]: > 100 µM
- TGI [7]: > 100 µM
- TGI [1]: > 100 µM
- TGI [2]: > 100 µM
- TGI [3]: > 100 µM
- TGI [4]: > 100 µM
- TGI [5]: > 100 µM

SMILES: CC1=CCC(=O)[C@]2(C)C(CC(=O)O)[C@]3(C)C4=C(C)C(c5ccoc5)C[C@@H]4O[C@@H]3[C@H](O)[C@@H]12 (stereo not given in full)
- TGI [6]: > 100 µM
- TGI [7]: > 100 µM
- TGI [1]: > 100 µM
- TGI [8]: > 100 µM
- TGI [2]: > 100 µM
- TGI [3]: > 100 µM
- TGI [4]: > 100 µM

SMILES: C[C@@H]1CC(=O)[C@@]2(C)[C@](O)(CCC3O[C@]32C)[C@@]12CC(c1ccoc1)OC2=O (stereo not given in full)
- TGI [6]: > 100 µM
- TGI [7]: > 100 µM
- TGI [1]: > 100 µM
- TGI [8]: > 100 µM
- TGI [4]: > 100 µM
- TGI [5]: > 100 µM

SMILES: O=C(c1cccs1)N(C(=O)N1CCCCC1)c1ccccc1
- TGI [6]: > 100 µM
- TGI [1]: > 100 µM
- TGI [8]: > 100 µM
- TGI [2]: > 100 µM
- TGI [3]: > 100 µM
- TGI [4]: > 100 µM
- TGI [5]: > 100 µM

SMILES: Cc1nc2ccccc2nc1N1CCCC1
- TGI [6]: > 100 µM
- TGI [7]: > 100 µM
- TGI [1]: > 100 µM
- TGI [2]: > 100 µM
- TGI [3]: > 100 µM
- TGI [4]: > 100 µM
- TGI [5]: > 100 µM
